Article PMC9884808, “Pharmacokinetics, tissue distribution, and antitumor activity of a novel compound, NY-2, in non-small cell lung cancer” (Frontiers in Pharmacology, 2023)

Columns and labels:
HUVECs = assay: MTT cytotoxicity on normal cells; assay type: cell-based, human; conditions: concentration of 10 μM or below, 48 h
Method: The human colorectal cancer cell lines, HCT116 and LoVo, the breast cancer cell line, T47D, the hepatocellular carcinoma cell line, HepG2, the normal human liver cell line, HL7702, human umbilical vein endothelial cells (HUVECs), and the non-small cell lung cancer cell lines, A549, H1993, HCC827, H460, were purchased from the American Type Culture Collection (Manassas, VA, United States). Cell lines were cultured in the recommended RPMI-1640 medium (AE24464298, Hyclone, United States) and DMEM medium (AE29422278, Hyclone, United States) supplemented with 10% fetal bovine serum (FBS; JC63470, FB15015, Clark, United States) with 1% penicillin-streptomycin. […]
Cell viability was measured by the MTT assay. […] An assay kit (WLA073, Wanlei Co., Liaoning, China), was used according to the manufacturer’s instructions to measure LDH activity, The absorbance at 450 nm was measured with a microplate reader (Elx-800, Bio-Rad, China).
First, the effects of NY-2 and ZLDI-8 on the survival rates of four NSCLC cell lines, A549, H1993, HCC827, H460, were compared by the MTT cytotoxicity assay. The various types of NSCLC cells were incubated with increasing concentrations of NY-2 and ZLDI-8 (1.25, 2.5, 5, 10, and 20 μM), and the cell viability at 48 h was measured. […]

[1] = Acute toxicity assay in KM mice; assay type: in vivo; conditions: tail vein injection 1000 mg/kg in saline, 10 days observation, 6 animals per group
Method: An acute toxicity assay was assessed in KM mice by tail vein injection of NY-2 dissolved in saline at a dose of 1000 mg/kg (6 animals per group).

[2] = Metabolic stability, liver microsome incubation; assay type: in vitro ADME; conditions: 100 μM
Method: Rat liver microsomes (RLMS) and human liver microsomes (HLMs) were purchased from RILD and BioIVT, respectively.The metabolic stability of 100 μm Zldi-8 and NY-2 in rat and human liver microsomes was investigated. Zldi-8/NY-2(100 ΜM)10 μl, mgcl210 ΜL, RLMs/HLMs 62.5 μl, PBS (ph 7.4)117.5 μl, NADPH 50 ΜL were added to the metabolic incubation system in ice bath, respectively.After adding in sequence, the incubation systems were pre-incubated for 3 min in a 37 ° C incubator, and then NADPH was added to start the reaction, and the incubation systems were removed at 0 min, 5 min, 10 min, 20 min, 30 min, 60 min, 90 min, 50 ΜL incubation solution was taken out respectively, and the reaction was stopped by rapidly adding equal volume of ice acetonitrile solution containing propranolol hydrochloride (internal standard) , vortex for 3 min, centrifugation at 4 ° C, 9500 rpm for 10 min, the content of the supernatant was determined by HPLC.The experiment was repeated three times in parallel.

A549 cells [3] = assay: Apoptosis, annexin-V/PI double staining; assay type: cell-based, human; conditions: 48 h, control 0.86 ± .05%
Method: For the apoptosis assay, cells were seeded into 6-well plates at 1× 10^5 cells per well, and after attachment for 4–6 h, they were incubated with different concentration of NY-2 for 48 h. After washing with 1×PBS, the cells were stained with Hoechst 33342 (5 μg/mL, 1 mL per well, C1022, Beyotime Biotechnology, China) for 20 min in a 37°C incubator followed by two washes with PBS. The number of apoptotic cells was counted under an inverted fluorescence microscope (Olympus, Japan). Apoptosis was also determined using an annexin V-FITC apoptosis detection kit (ABS50001, Absin Bioscience Inc., Shanghai, China). Cells were plated in 100 mm Petri dishes at a density of 1 × 10^6 cells/dish, after 4–6 h for attachment, cells were incubated with different concentrations of NY-2 for 48 h. For each sample, cells were harvested by trypsin digestion without EDTA and washed with 1 × PBS. Cells were resuspended in 300 μL of binding buffer, and 5 μL of annexin V-FITC solution were added and incubated at room temperature in the dark for 15 min, followed by the addition of 5 μL of propidium iodide (PI) solution. The sample staining was assessed by flow cytometry (BD Co., United States).

A549 cells [4] = assay: Wound-healing migration assay; assay type: cell-based, human; conditions: 48 h
Method: A wound-healing assay was used to assess the migration ability. Cells were seeded into 6-well plates at 3 × 10^5 cells per well. At about 90% confluence, uniform scratches were made in the monolayer using a sterile 200 μL pipet tip. After washing with phosphate-buffered saline (PBS), the cells were cultured in 2% FBS medium and photos were taken at 0 and 48 h. The rate of cell migration was determined by measuring the decrease in gap with compared to the initial gap at 0 h. Readings were performed independently in triplicate.

Notch1 and integrinβ1 = assay: Western blot protein analysis; assay type: cell-based, human
Source text: Antibodies against ADAM17 (Cat. No. ab39163), Notch1 (Cat. No. ab52627), integrin β1 (Cat. No. ab52971), β-actin (Cat. No. ab8226), and anti-rabbit IgG (Cat. No. ab6728) and anti-mouse IgG (Cat. No. ab190475) secondary antibodies conjugated with horseradish peroxidase (HRP) were purchased from Abcam (Cambridge, United Kingdom). Total protein was extracted from HCC cells, and samples were separated by SDS-PAGE and blotted to polyvinylidene fluoride (PVDF) membranes (Millipore, Billerica, MA, United States). The membranes were blocked and then incubated with primary antibodies, followed by washing and incubation with HRP-conjugated secondary antibodies. Stained blots were developed with enhanced chemiluminescence reagents (Pierce, Rockford, IL, United States) and imaged on X-ray film.

Cc1c(C=C2C(=O)NC(=S)NC2=O)c2ccccc2n1CCOc1ccc(F)cc1 [NY-2]
cytotoxic effects on HUVEC cells (HUVECs): no obvious cytotoxic effects
deaths in acute toxicity assay [1]: no deaths occurred
residual level (metabolic stability) ([2]; human liver microsomes): greater than that of ZLDI-8
residual level (metabolic stability) ([2]; rat liver microsomes): greater than that of ZLDI-8
percentage of A549 cells in apoptosis (A549 cells [3]; 5 μM): 5.45 ± 3.28%
percentage of A549 cells in apoptosis (A549 cells [3]; 10 μM): 20.29 ± 3.11%
migration of A549 cells (A549 cells [4]): inhibit the invasion and migration of A549 cells in a concentration-dependent manner
expression of Notch1 and integrinβ1 (Notch1 and integrinβ1): reduced the expression of Notch1 and integrinβ1in a dose-dependence manner
